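Test compounds were applied to cells in 96-well plates for 48 hours at 5 doses. GI50 = concentration required for 50% inhibition of growth.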 The source made the active and inactive calls. No stated cut-off is given here; in the data, active = GI50 up to about 1.1 µM and inactive = higher.
Experiments:
Test in all cases: NCI tumour cell line growth inhibition, 48 h
SF-295 = test system: SF-295
SF-539 = test system: SF-539
CCRF-CEM = test system: CCRF-CEM
HT-29 = test system: HT-29
MDA-MB-231 = test system: MDA-MB-231
ACHN = test system: ACHN
SK-OV-3 = test system: SK-OV-3
M14 = test system: M14
HOP-62 = test system: HOP-62
A549 = test system: A549
UO-31 = test system: UO-31
SK-MEL-28 = test system: SK-MEL-28
DU-145 = test system: DU-145
OVCAR-4 = test system: OVCAR-4
KM12 = test system: KM12
SW-620 = test system: SW-620
K562 = test system: K562
SNB-75 = test system: SNB-75
RPMI-8226 = test system: RPMI-8226
SK-MEL-2 = test system: SK-MEL-2

Measured: GI50

CCOC(=O)c1cn(C)nc1N/C(C)=C\C(=O)c1ccccc1
inactive: SF-295 > 100 µM | SF-539 83.2 µM | CCRF-CEM > 100 µM | HT-29 60.1 µM | MDA-MB-231 20.9 µM | ACHN > 100 µM | SK-OV-3 > 100 µM | M14 > 100 µM | HOP-62 33 µM | A549 > 100 µM | UO-31 > 100 µM | SK-MEL-28 > 100 µM | DU-145 > 100 µM | OVCAR-4 > 100 µM | KM12 > 100 µM | SW-620 > 100 µM | K562 > 100 µM

CCOC(=O)C1(C)CCCc2sc(N)c(C#N)c21 (centres undefined)
inactive: SNB-75 69 µM | HT-29 > 100 µM | MDA-MB-231 > 100 µM | RPMI-8226 > 100 µM | ACHN > 100 µM | M14 > 100 µM | HOP-62 > 100 µM | SK-MEL-2 > 100 µM | A549 > 100 µM | UO-31 > 100 µM | SK-MEL-28 > 100 µM | KM12 > 100 µM | SW-620 > 100 µM | K562 > 100 µM

CCOC(=O)C1=C(C)OC(=O)[C@@]2(OC)C=C(Cl)[C@@]12C
inactive: SNB-75 > 100 µM | SF-295 > 100 µM | SF-539 > 100 µM | CCRF-CEM > 100 µM | HT-29 > 100 µM | MDA-MB-231 > 100 µM | RPMI-8226 > 100 µM | ACHN > 100 µM | SK-OV-3 > 100 µM | M14 > 100 µM | HOP-62 > 100 µM | A549 > 100 µM | UO-31 > 100 µM | SK-MEL-28 > 100 µM | DU-145 > 100 µM | OVCAR-4 > 100 µM | KM12 > 100 µM | SW-620 > 100 µM | K562 > 100 µM

CCNC(=O)Nc1cccc(C)n1
inactive: SNB-75 68.9 µM | SF-295 > 100 µM | SF-539 > 100 µM | CCRF-CEM > 100 µM | HT-29 > 100 µM | MDA-MB-231 > 100 µM | ACHN > 100 µM | SK-OV-3 > 100 µM | M14 > 100 µM | HOP-62 91.4 µM | A549 > 100 µM | UO-31 > 100 µM | SK-MEL-28 > 100 µM | DU-145 > 100 µM | OVCAR-4 > 100 µM | KM12 > 100 µM | SW-620 > 100 µM | K562 > 100 µM

[O-][n+]1c2cccc(O)c2[n+]([O-])c2cccc(O)c21
inactive: SNB-75 > 100 µM | SF-295 57.9 µM | SF-539 32.7 µM | CCRF-CEM 5.56 µM | HT-29 > 100 µM | RPMI-8226 18.6 µM | ACHN 14.2 µM | SK-OV-3 45.7 µM | M14 > 100 µM | HOP-62 27.9 µM | A549 84.7 µM | UO-31 > 100 µM | DU-145 > 100 µM | OVCAR-4 42.7 µM | KM12 37.5 µM | SW-620 47.9 µM | K562 39.2 µM

O=C1c2ccccc2C(=O)N1CCCCNOCCCN1C(=O)c2ccccc2C1=O
inactive: SNB-75 > 100 µM | SF-295 > 100 µM | CCRF-CEM > 100 µM | HT-29 > 100 µM | MDA-MB-231 > 100 µM | RPMI-8226 > 100 µM | ACHN > 100 µM | SK-OV-3 > 100 µM | M14 > 100 µM | HOP-62 > 100 µM | A549 > 100 µM | UO-31 > 100 µM | SK-MEL-28 > 100 µM | DU-145 > 100 µM | OVCAR-4 > 100 µM | KM12 > 100 µM | SW-620 > 100 µM | K562 > 100 µM

O=c1cnc2cc3ccccc3cc2[nH]1
inactive: SNB-75 37.8 µM | SF-295 > 100 µM | CCRF-CEM > 100 µM | HT-29 > 100 µM | MDA-MB-231 75.7 µM | RPMI-8226 > 100 µM | ACHN > 100 µM | SK-OV-3 > 100 µM | M14 > 100 µM | HOP-62 > 100 µM | SK-MEL-2 > 100 µM | A549 > 100 µM | UO-31 46.9 µM | SK-MEL-28 > 100 µM | OVCAR-4 > 100 µM | KM12 > 100 µM | SW-620 > 100 µM | K562 > 100 µM

CN(C)c1ccc(-c2[nH]c(=O)c3ccccc3[n+]2C)cc1
inactive: SNB-75 > 100 µM | SF-295 > 100 µM | SF-539 > 100 µM | CCRF-CEM > 100 µM | HT-29 63.4 µM | MDA-MB-231 > 100 µM | RPMI-8226 63.2 µM | ACHN 62.5 µM | SK-OV-3 > 100 µM | M14 41.3 µM | HOP-62 > 100 µM | A549 > 100 µM | UO-31 39.4 µM | SK-MEL-28 > 100 µM | DU-145 > 100 µM | OVCAR-4 60.1 µM | KM12 55.5 µM | SW-620 > 100 µM | K562 58.6 µM

CC(C)(C)C(=O)OC(N)/C=C/c1ccccc1 (centres undefined)
inactive: SNB-75 > 100 µM | SF-295 > 100 µM | SF-539 > 100 µM | CCRF-CEM > 100 µM | HT-29 > 100 µM | MDA-MB-231 > 100 µM | RPMI-8226 > 100 µM | ACHN > 100 µM | SK-OV-3 > 100 µM | M14 > 100 µM | HOP-62 > 100 µM | SK-MEL-2 > 100 µM | A549 > 100 µM | UO-31 > 100 µM | SK-MEL-28 > 100 µM | OVCAR-4 > 100 µM | KM12 > 100 µM | SW-620 > 100 µM

CCOC(=O)CCCSCCCC(=O)CCCSCCCC(=O)OCC
inactive: SNB-75 > 100 µM | SF-295 > 100 µM | SF-539 > 100 µM | CCRF-CEM > 100 µM | HT-29 > 100 µM | MDA-MB-231 > 100 µM | SK-OV-3 > 100 µM | M14 > 100 µM | HOP-62 > 100 µM | A549 > 100 µM | UO-31 > 100 µM | SK-MEL-28 > 100 µM | DU-145 > 100 µM | OVCAR-4 > 100 µM | KM12 > 100 µM | SW-620 > 100 µM | K562 > 100 µM

O=c1[nH]nc(-c2cccc([N+](=O)[O-])c2)[nH]1
inactive: SNB-75 > 100 µM | SF-295 > 100 µM | SF-539 > 100 µM | CCRF-CEM > 100 µM | HT-29 > 100 µM | RPMI-8226 > 100 µM | ACHN > 100 µM | M14 > 100 µM | HOP-62 > 100 µM | SK-MEL-2 > 100 µM | A549 > 100 µM | UO-31 70.3 µM | SK-MEL-28 > 100 µM | DU-145 > 100 µM | OVCAR-4 > 100 µM | KM12 > 100 µM | SW-620 > 100 µM | K562 > 100 µM

CCOC(=O)N1CCC2C(=C(C)C(C)C3=C2C(=O)c2ccccc2C3=O)C1 (centres undefined)
inactive: SNB-75 3.75 µM | SF-295 3.82 µM | CCRF-CEM 9.44 µM | HT-29 4.07 µM | MDA-MB-231 4.07 µM | RPMI-8226 3.79 µM | SK-OV-3 > 10 µM | M14 4.73 µM | HOP-62 4.1 µM | A549 4.3 µM | SK-MEL-28 5.05 µM | DU-145 2.45 µM | OVCAR-4 > 10 µM | KM12 5.81 µM | SW-620 3.61 µM | K562 3.08 µM

Reference: ChEMBL document CHEMBL1201862, “PubChem BioAssay data set” (2004)
